Earlier results, collected in patent US12569487B2, “Treatment of hidradenitis with jak inhibitors” (PFIZER INC., priority 2019, dated 2026).
Read-outs that look alike come from different tables or passages of the source.

System: patients with moderate to severe HS
Settings: for Clinical response rate (hidradenitis suppurativa clinical response, HiSCR): adalimumab weekly

## adalimumab
PIONEER I, Week 12, placebo 26.0%, P=0.003, oral antibiotics stopped at least 28 days before baseline
  Clinical response rate (hidradenitis suppurativa clinical response, HiSCR): 41.8%
PIONEER II, Week 12, placebo 27.6%, P<0.001, stable tetracycline-class antibiotics allowed
  Clinical response rate (hidradenitis suppurativa clinical response, HiSCR): 58.9%
Week 12, in PIONEER II only
  Rank-ordered secondary outcomes (lesions, pain, modified Sartorius score) versus placebo: significantly greater improvement
Summary of the PIONEER trials
  Patients with moderate to severe HS who did not respond to treatment: ~40%
